Test results: patent publication US11542259B2, “Compounds for the treatment of kinase-dependent disorders” (Exelixis, Inc., priority 2018, dated 2023)
Where two headings read alike, the source gives them in different places.

Test: Pharmacokinetic studies in male Sprague-Dawley rats
Type: in vivo
Conditions: rat; for clearance / half-life / Cmax: male, Sprague-Dawley, plasma; for half-life: read-out: t½
Procedure: Pharmacokinetic properties of select compounds were assessed in male Sprague-Dawley rats.
The non-GLP study was designed to investigate the pharmacokinetics of chosen compounds in plasma following an intravenous or oral dose administration to male Sprague Dawley rats. […]
Animals in the PO group were fasted overnight prior to dose administration. Food was returned following the collection of the 4-hour blood sample. Water was not withheld.
Immediately prior to dosing, the body weight of each animal was recorded. Doses (rounded to the nearest 0.001 mL) were calculated based on the pretreatment body weight (kg) and a dose volume of 2.5 mL/kg for intravenous administration and 5 mL/kg for oral administration. Intravenous formulations were administered via a jugular vein cannula. Immediately after dosing, the cannula was flushed with saline and the line was tied off. The oral dose was administered via a ball-tipped feeding needle. Dosing syringe volumes for administration were second-person verified prior to dosing and that volume along with the results for the concentration verification analysis were used to calculate the actual dose administered. Dosing syringes were weighed immediately prior to and immediately after dosing each animal as a gravimetric check.
Serial blood samples (approximately 200 μL per sample) were collected from each animal at 0.083 (IV dosing only), 0.25, 0.5, 1, 2, 4, 6 (PO dosing only), 8, 24, 32, 48, and 72 hours after dosing. Blood samples were collected into tubes containing K2EDTA via the non-dosing jugular-vein cannula (JVC), which was flushed with an approximately equal volume of saline following each collection.
Blood samples were stored on wet ice until processed to plasma by centrifugation (3500 rpm at 5° C. for 10 minutes) within 1 hour of collection. Plasma samples were transferred into matrix tubes and then stored in a −80° C. freezer.
Plasma samples and dose formulation samples were analyzed for the compounds of interest using liquid chromatography-tandem mass spectrometry (LC-MS/MS) methods. Pharmacokinetic parameter estimates were calculated from the individual animal plasma concentration-time data using the actual dose based on the analysis of the dosing formulations, nominal sampling times (all collections were within an acceptable range of target), and non-compartmental methods. The concentration-time data were analyzed to fit either an intravenous-bolus (IV) plasma analysis model (201) or extra-vascular (P0) dosing plasma analysis model (200) using the software WinNonlin Phoenix version 6.3 (Pharsight). The single-dose pharmacokinetic parameters assessed include, as appropriate: Cmax (observed peak or maximum concentration); Tmax (observed time of peak concentration); T1/2 (terminal half-life); Vz (volume of distribution based on the terminal phase); Vss (volume of distribution at steady state); AUCINF (area under the concentration-time curve computed from time zero to infinity); AUClast (area under the concentration-time curve computed from time zero to the time of the last quantifiable concentration); C0 (back-extrapolated concentration at time zero); CL (total body clearance); Vz/F (volume of distribution for extravascular administration based on the terminal phase); CL/F (total body clearance for extravascular administration); F % (bioavailability); and MRTlast (mean residence time).
Areas-under-the-plasma concentration-time curves (AUC) were estimated using the linear-log trapezoidal rule. The area through the time (Tlast) of the last observable concentration (Clast) is reported as AUClast. AUC extrapolated to infinity, (AUCINF) was estimated by adding AUClast and the ratio of Clast/λz, where λz is the terminal rate constant. Apparent terminal half-life (T1/2) was calculated as ln(2)/λz and determined using the slope of the log-linear terminal phase of the concentration-time curve, defined by a minimum of three plasma concentration-time points. […]

Row | SMILES | Cmax (PO (3 mg/kg)) [µM] | half-life (PO (3 mg/kg)) [h] | clearance (IV (3 mg/kg)) [mL/min/kg] | half-life (IV (3 mg/kg)) [h] | other results
1 | COc1cc2nccc(Oc3ccc(NC(=O)C4(C(=O)Nc5ccc(F)cc5)CC4)cc3)c2cc1-c1ncco1 [Compound 45, 1-N′-(4-fluorophenyl)-1-N-[4-[7-methoxy-6-(1,3-oxazol-2-yl)quinolin-4-yl]oxyphenyl]cyclopropane-1,1-dicarboxamide] | 15.3 | 5.7 | – | – | clearance (IV (1 mg/kg)): 0.683 mL/min/kg; half-life (IV (1 mg/kg)): 10.1 h
2 | CCNC(=O)c1cc2c(Oc3ccc(NC(=O)C4(C(=O)Nc5ccc(F)cc5)CC4)cc3)ccnc2cc1OC [Compound 9, 1-N-[4-[6-(ethylcarbamoyl)-7-methoxyquinolin-4-yl]oxyphenyl]-1-N′-(4-fluorophenyl)cyclopropane-1,1-dicarboxamide] | 3.9 | 2.6 | 2.53 | 2.8 | F (PO (3 mg/kg)): F = 69%
3 | COc1cc2nccc(Oc3ccc(NC(=O)C4(C(=O)Nc5ccc(F)cc5)CC4)cc3)c2cc1S(N)(=O)=O [Compound 206, 1-N′-(4-Fluorophenyl)-1-N-[4-(7-methoxy-6-sulfamoylquinolin-4-yl)oxyphenyl]cyclopropane-1,1-dicarboxamide] | 0.7 | 2.9 | 8.52 | 2.1 | F (PO (3 mg/kg)): F = 37%
4 | COc1cc2nccc(Oc3ccc(NC(=O)C4(C(=O)Nc5ccc(F)cc5)CC4)cc3)c2cc1C(N)=O [Compound 7, 1-N-[4-(6-carbamoyl-7-methoxyquinolin-4-yl)oxyphenyl]-1-N′-(4-fluorophenyl)cyclopropane-1,1-dicarboxamide] | 8.8 | 7.3 | – | – | clearance (IV (1 mg/kg)): 1.48 mL/min/kg; half-life (IV (1 mg/kg)): 3.1 h
5 | CONC(=O)c1cc2c(Oc3ccc(NC(=O)C4(C(=O)Nc5ccc(F)cc5)CC4)cc3)ccnc2cc1OC [Compound 17, 1-N′-(4-fluorophenyl)-1-N-[4-[7-methoxy-6-(methoxycarbamoyl)quinolin-4-yl]oxyphenyl]cyclopropane-1,1-dicarboxamide] | – | – | – | – | clearance (IV (3.0 mg/kg)): 1.7 mL/min/kg; half-life (IV (3.0 mg/kg)): 3 h; Cmax (PO (3.2 mg/kg)): 3.4 µM; half-life (PO (3.2 mg/kg)): 4.5 h; F (PO (3.2 mg/kg)): F = 46%
6 | CNC(=O)c1cc2c(Oc3ccc(NC(=O)C4(C(=O)Nc5ccc(F)cc5)CC4)cc3)ccnc2cc1OC [Compound 8, 1-N′-(4-fluorophenyl)-1-N-[4-[7-methoxy-6-(methylcarbamoyl)quinolin-4-yl]oxyphenyl]cyclopropane-1,1-dicarboxamide] | 11.4 | 7.1 | 0.717 | 5.4 | –
7 | COc1cc2nccc(Oc3ccc(NC(=O)C4(C(=O)Nc5ccc(F)cc5)CC4)cc3)c2cc1-c1ncc[nH]1 [Compound 191, 1-N′-(4-Fluorophenyl)-1-N-[4-[6-(1H-imidazol-2-yl)-7-methoxyquinolin-4-yl]oxyphenyl]cyclopropane-1,1-dicarboxamide] | – | – | – | – | clearance (IV (3.0 mg/kg)): 1.05 mL/min/kg; half-life (IV (3.0 mg/kg)): 9.9 h; Cmax (PO (3.1 mg/kg)): 4.6 µM; half-life (PO (3.1 mg/kg)): 6.8 h; F (PO (3.1 mg/kg)): F = 38%
